# Where a SMILES comes first, the peptide text is derived from it.
# Organism: Bos taurus
# Assay: Electromyographic activity is measured as mean of the ratio of the height of the muscle action potential generated by the tenth impulse to the initial impulse in bovine thymus extracts at 10 mg
# Assay type: functional, Muscle tissue
row,Compound,Mean
1,CC(C)[C@H](/N=C(\S)[C@H](CC(=O)O)NC(=O)[C@H](CCCCN)NC(=O)[C@@H](N)CCCN=C(N)N)C(=O)N[C@@H](Cc1ccc(O)cc1)C(=O)O,0.89
2,CC(C)[C@H](NC(=O)[C@H](CC(=O)O)NC(=O)[C@H](CCCCN)NC(=O)[C@@H](N)CCCN=C(N)N)C(=O)N[C@@H](Cc1ccc(O)cc1)C(=O)O [THYMOPENTIN] (H-RKDVY-OH),0.83
3,CC(C)[C@H](NC(=O)[C@H](CC(=O)O)NC(=O)[C@H](CCCCN)/N=C(\S)[C@@H](N)CCCN=C(N)N)C(=O)N[C@@H](Cc1ccc(O)cc1)C(=O)O,0.85
4,CC(C)[C@H](NC(=O)[C@H](CC(=O)O)/N=C(\S)[C@H](CCCCN)NC(=O)[C@@H](N)CCCN=C(N)N)C(=O)N[C@@H](Cc1ccc(O)cc1)C(=O)O,0.83
5,CC(C)[C@H](NC(=O)[C@H](CC(=O)O)NC(=O)[C@H](CCCCN)NC(=O)[C@@H](N)CCCN=C(N)N)/C(S)=N/[C@@H](Cc1ccc(O)cc1)C(=O)O,0.84

# From ChEMBL document CHEMBL1159166, “Chemoselective thioacylation of amino acids. Preparation of the four monothiothymopentin analogs and their biological activity” (1993)
